Usually IC50 stands for the point on the concentration scale where inhibition reaches its midpoint.

Series [1] can be described thus: Compound toxicity in CEM-SS cells (MTS staining). The series is classed as cell-based. As to conditions: human, read-out: CEM-SS TC50.
A further series deals with HIV-1RF. The experiment in a line: Anti-HIV-1 cytoprotection assay in CEM-SS cells. The series is classed as cell-based. Conditions: Human immunodeficiency virus 1, 144 h; CEM-SS cells infected with HIV-1RF, MOI approximately 0.01, 6 days, MTS; read-out: CEM-SS IC50 (Anti-HIV Screening).

In the case of `[BH3-][P+](O)(OCC1OC(n2cc(C)c(=O)[nH]c2=O)CC1N=[N+]=[N-])OP(=O)(O)C(F)(F)P(=O)(O)O` (single isomer, unassigned) [Compound 27-isomer 1, 3′-Azido-3′-deoxythymidine 5′-α-P-borano-β,γ-(difluoromethylene)triphosphate], in series [1], the CC50 is greater than 200000 nM. The IC50 with HIV-1RF worked out at 1640 nM.

These data come from patent publication US20040059104A1, “Nucleotide mimics and their prodrugs” (priority 2002, published 2004).
